Earlier results on 16 molecules are cited in Sander's compilation of Henry's law constants (doi:10.1021/je0002282).

The structures appear in SMILES notation.

A short description of the series: Henry solubility constant Hcp at 298.15 K (mol/(m3 Pa)). To be noted: reference: Plyasunov and Shock (2001); cited value.
In the case of `CC(=O)C(C)C` [3-methyl-2-butanone], the “Henry solubility constant Hcp” value was 0.091.

On to `CCCCCCC(C)=O` [2-octanone], for which the “Henry solubility constant Hcp” value was 0.058.

`CCCCC(C)=O` [2-hexanone]: the “Henry solubility constant Hcp” value was 0.098.

Turning to `CC(C)CC(=O)CC(C)C` [2,6-dimethyl-4-heptanone], the “Henry solubility constant Hcp” value was 0.013.

As to `CC(=O)C(C)(C)C` [3,3-dimethyl-2-butanone], the “Henry solubility constant Hcp” value was 0.045.

Regarding `CCC(=O)C(C)C` [2-methyl-3-pentanone], the “Henry solubility constant Hcp” value is 0.053.

As for `CCCC(C)=O` [2-pentanone], the “Henry solubility constant Hcp” value is 0.13.

Regarding `CCCC(=O)CCC` [4-heptanone], the “Henry solubility constant Hcp” value was 0.061.

For the molecule `CCCCCCCC(C)=O` [2-nonanone], the “Henry solubility constant Hcp” value is 0.037.

With `CCCCCCCCCC(C)=O` [2-undecanone], the “Henry solubility constant Hcp” value is 0.019.

Take `CC(C)=O` [propanone]: the “Henry solubility constant Hcp” value is 0.27.

In the case of `CCCCCC(C)=O` [2-heptanone], the “Henry solubility constant Hcp” value is 0.072.

`CCCC(=O)CC` [3-hexanone]: the “Henry solubility constant Hcp” value is 0.075.

Consider `CC(=O)CC(C)C` [4-methyl-2-pentanone], for which the “Henry solubility constant Hcp” value was 0.069.

For the molecule `CC(C)C(=O)C(C)C` [2,4-dimethyl-3-pentanone], the “Henry solubility constant Hcp” value was 0.024.

For `CCC(=O)CC` [3-pentanone], the “Henry solubility constant Hcp” value was 0.11.
